Laboratory results reported in article PMC11114221, “A pattern recognition artificial olfactory system based on human olfactory receptors and organic synaptic devices” (Science Advances, 2024).

How the values were obtained:
Experiment in all cases: tryptophan fluorescence quenching
Format in all cases: binding
Details in all cases: receptor nanodiscs 500 nM; 20 mM Hepes, 100 mM NaCl, pH 8.0
hOR52D1 = molecular target: T1, hOR52D1 (Homo sapiens, UniProt Q9H346)
T1 construct: gene OR52D1; E. coli SuptoxR (Rosetta 2 (DE3) with RraA); ~38 kDa
T1 sequence (Q9H346 1-318): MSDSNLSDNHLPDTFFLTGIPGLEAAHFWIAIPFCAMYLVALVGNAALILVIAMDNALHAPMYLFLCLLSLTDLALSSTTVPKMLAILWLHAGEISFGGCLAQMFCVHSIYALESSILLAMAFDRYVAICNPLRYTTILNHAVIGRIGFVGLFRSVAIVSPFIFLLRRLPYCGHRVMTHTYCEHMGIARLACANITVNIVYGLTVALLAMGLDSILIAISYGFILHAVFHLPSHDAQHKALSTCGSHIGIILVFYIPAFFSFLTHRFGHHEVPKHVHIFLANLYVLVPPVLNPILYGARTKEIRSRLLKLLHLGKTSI

hOR51E2 = molecular target: T2, hOR51E2 (Homo sapiens, UniProt Q9H255)
T2 construct: gene OR51E2; E. coli SuptoxR (Rosetta 2 (DE3) with RraA); ~38 kDa
T2 sequence (Q9H255 1-320): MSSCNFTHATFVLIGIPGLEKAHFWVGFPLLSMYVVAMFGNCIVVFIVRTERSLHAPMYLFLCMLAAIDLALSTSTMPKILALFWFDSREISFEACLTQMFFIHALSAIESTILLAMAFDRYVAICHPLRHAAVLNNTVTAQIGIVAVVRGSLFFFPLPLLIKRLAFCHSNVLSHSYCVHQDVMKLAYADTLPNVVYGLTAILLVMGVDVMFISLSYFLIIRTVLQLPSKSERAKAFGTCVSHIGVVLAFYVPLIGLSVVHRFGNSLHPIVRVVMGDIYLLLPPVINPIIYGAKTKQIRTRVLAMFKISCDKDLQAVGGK

hOR51E1 = molecular target: T3, hOR51E1 (Homo sapiens, UniProt Q8TCB6)
T3 construct: gene OR51E1; E. coli SuptoxR (Rosetta 2 (DE3) with RraA); ~38 kDa
T3 sequence (Q8TCB6 1-318): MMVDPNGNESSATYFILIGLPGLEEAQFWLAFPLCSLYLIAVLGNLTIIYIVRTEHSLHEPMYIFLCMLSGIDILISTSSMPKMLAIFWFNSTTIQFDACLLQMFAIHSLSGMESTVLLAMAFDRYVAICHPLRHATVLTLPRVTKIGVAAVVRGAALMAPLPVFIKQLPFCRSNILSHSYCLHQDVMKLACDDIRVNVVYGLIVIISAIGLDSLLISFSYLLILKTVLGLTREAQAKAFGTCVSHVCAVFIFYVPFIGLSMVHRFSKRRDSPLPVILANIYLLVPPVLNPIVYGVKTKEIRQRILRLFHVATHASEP

| Compound | ∆F/F0 (%) (hOR52D1) | ∆F/F0 (%) (hOR51E2) | ∆F/F0 (%) (hOR51E1) |
| --- | --- | --- | --- |
| CCC(=O)O [PA, propionic acid] | each hOR ND displayed distinct binding affinities toward the SCFAs | each hOR ND displayed distinct binding affinities toward the SCFAs | each hOR ND displayed distinct binding affinities toward the SCFAs |
| CCCCC(=O)O [VA, valeric acid] | each hOR ND displayed distinct binding affinities toward the SCFAs | each hOR ND displayed distinct binding affinities toward the SCFAs | each hOR ND displayed distinct binding affinities toward the SCFAs |
| CCCC(=O)O [BA, butyric acid] | each hOR ND displayed distinct binding affinities toward the SCFAs | each hOR ND displayed distinct binding affinities toward the SCFAs | each hOR ND displayed distinct binding affinities toward the SCFAs |
| CCCCCC(=O)O [HA, hexanoic acid] | each hOR ND displayed distinct binding affinities toward the SCFAs | each hOR ND displayed distinct binding affinities toward the SCFAs | each hOR ND displayed distinct binding affinities toward the SCFAs |
